Laboratory results taken from patent US11992517B2, “Compositions and methods for promoting the mineralization of biological tissue” (NEW YORK SOCIETY FOR THE RUPTURED AND CRIPPLED MAINTAINING …, priority 2013, dated 2024).

Assays:
ANKH = experiment: RT-PCR of ANK after IL-1β treatment; type: cell-based, bovine; conditions: IL-1β 0.01 and 2 ng/ml; naïve cells and TNAP-infected BNP cells; day 3; FIG. 23
Method: (§1) Cells from Example 2 were grown in mineralization medium in the presence or absence of a low dose of […] (0.01 ng/ml) or a high dose (2 ng/ml) (R&D Systems). Cells were analyzed by Alizarin Red staining at 7 and 10 days as previously described. RT-PCR analysis of ANK and ENPP was also performed as previously described, using primers specific for ANKH and ENPP1.

BNP cells = experiment: Effect of IL-1β on mineralization, Alizarin Red staining; type: cell-based, bovine; conditions: IL-1β 0.01 and 2 ng/ml, 7 and 10 days
Method: as §1

ENPP1 = experiment: RT-PCR of ENPP after IL-1β treatment; type: cell-based, bovine; conditions: IL-1β 0.01 and 2 ng/ml; naïve cells and TNAP-infected BNP cells; day 3; FIG. 23
Method: as §1

bovine NP cells = experiment: Effect of TNF-α on mineralization, Alizarin Red and von Kossa staining; type: cell-based
Method: The cells from Example 2 (TNAP infected and naïve) were grown in high density cultures in a medium comprising DMEM high glucose (4.5 g/L) plus 1% PenStrep, and 10% FBS, and 50 μ/ml ascorbic acid, and 5 mM of β-glycerophosphate (mineralization medium). Some cells were also stimulated with 10 ng/mL of hfTNF-α.
The cells were stained with Alizarin Red and von Kossa stain after 7, 14, and 21 days.

| Substance | ANK transcripts (ANKH) | Alizarin Red staining of NP cells transduced with LacZ (BNP cells) | calcium staining with Alizarin Red of TNAP-infected BNP cell cultures (BNP cells; mineralization medium, FIGS. 21, 22) | ENPP transcripts (ENPP1) | mineralization of NP cells stimulated with TNF-α only (bovine NP cells; 10 ng/mL TNF-α, cells without TNAP) | staining of TNAP infected cells stimulated with TNF-α (bovine NP cells; 10 ng/mL TNF-α, versus unstimulated TNAP infected cells, FIG. 10) | more Alizarin Red staining than TNAP alone (bovine NP cells; TNAP overexpressing cells stimulated with TNF-α, average over three weeks, FIG. 11) |
| --- | --- | --- | --- | --- | --- | --- | --- |
| IL-1β: interleukin 1β (R&D Systems) added at 0.01 or 2 ng/ml | dose-dependent decrease | no observable change | dose-dependent increase | dose-dependent decrease |  |  |  |
| TNF-α |  |  |  |  | did not show mineralization | darker | 45% |
